In US20020132817A1, “Heterocyclic compounds, their production and use” (priority 1998, published 2002) one finds IC50 and melting point data, which are given here for 25 compounds.

One data set concerns the target T1, substance P receptor (Homo sapiens, UniProt P25103).
T1 construct: The receptor was prepared from human lymphoblast cells (IM-9); endogenous in cells; host or cells: IM-9 human lymphoblast cells (membrane preparation)
In words: Radioligand receptor binding inhibitory activity using receptor from human lymphoblast cells (IM-9). The settings on record: 125I-BHSP radioligand, receptor from IM-9 cells, 25° C. for 30 minutes. The procedure:
Radioligand receptor binding inhibitory activity Binding inhibitory activity using receptor from human lymphoblast cells (IM-9)
The receptor was prepared from human lymphoblast cells (IM-9). IM-9 cells (2×10^5 cells/ml) were inoculated and incubated for 3 days (one liter), which was then subjected to centrifuge for 5 minutes at 500×g to obtain cell pellets. […] The residue was washed twice with 30 ml of the above-mentioned buffer, which was then preserved frozen (−80° C.) as a specimen of the receptor.
The specimen was suspended in a reaction buffer (50 mM Tri-HCl buffer (pH 7.4), 0.02% bovine serum albumin, 1 mM phenylmethylsulfonyl fluoride, […], […] bacitracin, 3 mM manganese chloride) and 100 ul portion was the suspension was used in the reaction. […] The amount of nonspecific binding was determined by adding substance P at a final concentration of 2×10^−6M. After the reaction, using a cell harvester (290 PHD, Cambridge Technology, Inc, U.S.A.), rapid filtration was carried out through a glass filter (GF/B, Whatman, U.S.A.) to stop the reaction. After washing three times with 250 ul of 50 mM of Tris-HCl buffer (pH 7.4) containing 0.02% bovine serum albumin, the radioactivity remaining on the filter was determined with a gamma counter. Before use, the filter was immersed in 0.1% polyethyleneimine for 24 hours and air-dried.

Molecules are shown by their SMILES.

T1 sequence (P25103 whole entry): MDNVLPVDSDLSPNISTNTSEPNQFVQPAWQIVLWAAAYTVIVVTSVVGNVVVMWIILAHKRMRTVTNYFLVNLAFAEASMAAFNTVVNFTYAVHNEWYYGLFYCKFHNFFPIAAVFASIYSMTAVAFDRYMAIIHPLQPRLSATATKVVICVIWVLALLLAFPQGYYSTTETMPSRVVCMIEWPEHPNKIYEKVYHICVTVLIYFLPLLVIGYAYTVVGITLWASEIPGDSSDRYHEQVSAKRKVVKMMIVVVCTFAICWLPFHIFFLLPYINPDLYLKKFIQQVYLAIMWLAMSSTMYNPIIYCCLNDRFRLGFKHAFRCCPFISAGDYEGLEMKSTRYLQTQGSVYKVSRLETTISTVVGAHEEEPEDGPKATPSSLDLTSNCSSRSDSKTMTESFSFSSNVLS

Compound `CCC1CCn2c(c(-c3ccc(C)cc3)c3cccnc3c2=O)C(=O)N(Cc2cc(C(F)(F)F)cc(C(F)(F)F)c2)C1` (racemic) [Example 15, (±)-7-[3,5-bis(trifluoromethyl)benzyl]-9-ethyl-6,7,8,9,10,11-hexahydro-5-(4-methylphenyl)-6,13-dioxo-13H-[1,4]diazosino[2,1-g][1,7]napththylidine] displayed a melting point of 258 to 260 °C. The compound also yielded a half-maximal inhibitory concentration (IC50) at substance P receptor of 1.1 nM.
The like results for `CC1CCn2c(c(-c3ccccc3)c3cccnc3c2=O)C(=O)N(Cc2cc(C(F)(F)F)cc(C(F)(F)F)c2)C1` (racemic) [Reference Example 69, (+/−)-7-[3,5-Bis(trifluoromethyl)benzyl]-6,7,8,9,10,11-hexahydro-9-methyl-6,13-dioxo-5-phenyl-13H-[1,4]diazocino[2,1-g][1,7]naphthyridine] were, in that order, 257 to 258 °C and 0.88 nM.
Regarding `Cc1ccc(-c2c3n(c(=O)c4ncccc24)CC(O)CN(Cc2cc(C(F)(F)F)cc(C(F)(F)F)c2)C3=O)cc1` (racemic) [Reference Example 79, (+/−)-7-[3,5-Bis(trifluoromethyl)benzyl]-6,7,8,9,10,12-hexahydro-9-hydroxy-5-(4-methylphenyl)-6,12-dioxo[1,4]diazepino [2,1-g][1,7]naphthyridine], the melting point was in the range of 282 to 283 °C. Moreover, at substance P receptor, the half-maximal inhibitory concentration (IC50) amounted to 0.1 nM.
The compound `CCOc1cc(CN2C[C@H](C)CCn3c(c(-c4ccc(C)cc4)c4cccnc4c3=O)C2=O)cc(OCC)c1` [Example 3, (9R)-7-(3,5-diethoxybenzyl)-6,7,8,9,10,11-hexahydro-9-methyl-5-(4-methylphenyl)-6,13-dioxo-13H-[1,4]diazosino[2,1-g][1,7]napththylidine] yielded a concentration for half-maximal inhibition (IC50) at substance P receptor of 0.69 nM.
In the case of `Cc1ccc(-c2c3n(c(=O)c4ncccc24)CC[C@@H](C)CN(Cc2cc(OC(C)C)cc(OC(C)C)c2)C3=O)cc1` [Example 4, (9R)-7-[3,5-di(1-methylethyloxy)benzyl)-6,7,8,9,10,11-hexahydro-9-methyl-5-(4-methylphenyl)-6,13-dioxo-13H-[1,4]diazosino[2,1-g[]1,7]napththylidine], the IC50 on substance P receptor was 0.17 nM.
On to `COc1cc(CN2C[C@H](C)CCn3c(c(-c4ccccc4)c4cccnc4c3=O)C2=O)cc(OC)c1` [Example 5, (9R)-7-(3,5-dimethoxybenzyl)-6,7,8,9,10,11-hexahydro-9-methyl-6,13-dioxo-5-phenyl-13H-[1,4]diazosino[2,1-g][1,7]napththylidine], for which the melting point was in the range of 199 to 201 °C. Further, the IC50 on substance P receptor came out at 0.48 nM.
For the compound `C[C@@H]1CCn2c(c(-c3ccc(Cl)cc3)c3cccnc3c2=O)C(=O)N(Cc2cc(C(F)(F)F)cc(C(F)(F)F)c2)C1` [Example 6, (9R)-7-[3,5-bis(trifluoromethyl)benzyl]-5-(4-chlorophenyl)-6,7,8,9,10,11-hexahydro-9-methyl-6,13-dioxo-13H-[1,4]diazosino[2,1-g][1,7]napththylidine], the IC50 at substance P receptor was 0.13 nM.
`C[C@@H]1CCn2c(c(-c3ccc(Cl)c(Cl)c3)c3cccnc3c2=O)C(=O)N(Cc2cc(C(F)(F)F)cc(C(F)(F)F)c2)C1` [Example 7] returned a half-maximal inhibitory concentration (IC50) at substance P receptor of 0.83 nM. This IC50 lies about 6.4-fold higher than the previous one.
As for `COc1cc(CN2C[C@H](C)CCn3c(c(-c4ccc(Cl)c(Cl)c4)c4cccnc4c3=O)C2=O)cc(OC)c1` [Example 8, (9R)-7-(3,5-dimethoxybenzyl)-5-(3,4-dichlorophenyl)-6,7,8,9,10,11-hexahydro-9-methyl-6,13-dioxo-13H-[1,4]diazosino[2,1-g][1,7]napththylidine], the melting point is 207 to 208 °C. Moreover, the IC50 on substance P receptor was found to be 0.05 nM.
For the compound `Cc1ccc(-c2c3n(c(=O)c4ncccc24)CC[C@@H](C)CN(Cc2cc(C)cc(C)c2)C3=O)cc1` [Example 9, (9R)-7-(3,5-dimethylbenzyl)-6,7,8,9,10,11-hexahydro-9-methyl-5-(4-methylphenyl)-6,13-dioxo-13H-[1,4]diazosino[2,1-g][1,7]napththylidine], the melting point is 200 to 202 °C. In addition, on substance P receptor, the half-inhibitory concentration (IC50) came out at 0.86 nM.
Compound `Cc1ccc(-c2c3n(c(=O)c4ncccc24)CC[C@@H](C)CN(Cc2cc(Cl)cc(Cl)c2)C3=O)cc1` [Example 10, (9R)-7-(3,5-dichlorobenzyl)-6,7,8,9,10,11-hexahydro-9-methyl-5-(4-methylphenyl)-6,13-dioxo-13H-[1,4]diazosino[2,1-g][1,7]napththylidine] displayed a melting point of 139 to 141 °C. The IC50 on substance P receptor came out at 1 nM.
In turn, `Cc1cc(C)cc(CN2C[C@H](C)CCn3c(c(-c4ccc(Cl)c(Cl)c4)c4cccnc4c3=O)C2=O)c1` [Example 11, (9R)-5-(3,4-dichlorophenyl)-7-(3,5-dimethylbenzyl)-6,7,8,9,10,11-hexahydro-9-methyl-6,13-dioxo-13H-[1,4]diazosino[2,1-g][1,7]napththylidine] came in with a melting point of 137 to 139 °C. At substance P receptor, this compound had a 50% inhibitory concentration (IC50) of 0.81 nM.
For the compound `COc1cc(CN2C[C@H](C)CCn3c(c(-c4ccc(F)cc4)c4cccnc4c3=O)C2=O)cc(OC)c1` [Example 12, (9R)-7-(3,5-dimethoxybenzyl)-5-(4-fluorophenyl)-6,7,8,9,10,11-hexahydro-9-methyl-6,13-dioxo-13H-[1,4]diazosino[2,1-g][1,7]napththylidine], the melting point was in the range of 192 to 193 °C. The IC50 at substance P receptor came out at 1.5 nM.
The compound `C[C@@H]1CCn2c(c(-c3ccc(F)cc3)c3cccnc3c2=O)C(=O)N(Cc2cc(C(F)(F)F)cc(C(F)(F)F)c2)C1` [Example 14, (9R)-7-[3,5-bis(trifluoromethyl)benzyl]-5-(4-fluorophenyl)-6,7,8,9,10,11-hexahydro-9-methyl-6,13-dioxo-13H-[1,4]diazosino[2,1-g][1,7]napththylidine] gave a concentration for half-maximal inhibition (IC50) at substance P receptor of 0.37 nM.
In turn, `Cc1ccc(-c2c3c(c(=O)n4c2C(=O)N(Cc2cc(C(F)(F)F)cc(C(F)(F)F)c2)CCCC4)CN(C)CC3)cc1` [Reference Example 64, 7-[3,5-Bis(trifluoromethyl)benzyl]-1,2,3,4,6,7,8,9,10,11-decahydro-2-methyl-5-(4-methylphenyl)-6,13-dioxo-13H-[1,4]diazocino[1,2-b][2,7]naphthyridine] yielded an IC50 on substance P receptor of 0.66 nM.
`Cc1cnc2c(c1-c1ccccc1)C(=O)N(Cc1cc(C(F)(F)F)cc(C(F)(F)F)c1)CCCO2` [Reference Example 78] showed an IC50 on substance P receptor of 1.6 nM. This IC50 lies about 2.4-fold higher than the previous one.
On to `CN1CCN(Cc2cc(-c3ccccc3)c3c(n2)OCCN(Cc2cc(C(F)(F)F)cc(C(F)(F)F)c2)C3=O)CC1` [Reference Example 101, 4-[3,5-Bis(trifluoromethyl)benzyl]-2,3,4,5-tetrahydro-8-(N-methylpiperazinomethyl)-5-oxo-6-phenylpyrido[3,2-f][1,4]oxazepine], for which the concentration for half-maximal inhibition (IC50) at substance P receptor was 0.2 nM.
Regarding `C[C@@H]1COc2nccc(-c3ccccc3)c2C(=O)N(Cc2ccccc2)C1` [Reference Example 123, (S)-5-Benzyl-2,3,4,5-tetrahydro-3-methyl-6-oxo-7-phenyl-6H-pyrido[2,3-b][1,5]oxazocine], the melting point was in the range of 139 to 141 °C.
Still for that read-out and setting: the result for `C[C@H]1COc2nccc(-c3ccccc3)c2C(=O)N(Cc2ccccc2)C1` [Reference Example 124, (R)-5-Benzyl-2,3,4,5-tetrahydro-3-methyl-6-oxo-7-phenyl-6H-pyrido[2,3-b][1,5]oxazocine] reads 139 to 140 °C; that for `C[C@@H]1COc2nccc(-c3ccccc3)c2C(=O)N(Cc2cc(C(F)(F)F)cc(C(F)(F)F)c2)C1` [Reference Example 125, (S)-5-[3,5-Bis(trifluoromethyl)benzyl]-2,3,4,5-tetrahydro-3-methyl-6-oxo-7-phenyl-6H-pyrido[2,3-b][1,5]oxazocine], 142 to 143 °C.
On to `C[C@H]1COc2nccc(-c3ccccc3)c2C(=O)N(Cc2cc(C(F)(F)F)cc(C(F)(F)F)c2)C1` [Reference Example 126, (R)-5-[3,5-Bis(trifluoromethyl)benzyl]-2,3,4,5-tetrahydro-3-methyl-6-oxo-7-phenyl-6H-pyrido[2,3-b][1,5]oxazocine], for which the melting point was in the range of 142 to 143 °C.
The compound `Cc1ccc(-c2ccnc3c2C(=O)N(Cc2ccccc2)CCO3)cc1` [Reference Example 133, 4-Benzyl-2,3,4,5-tetrahydro-5-oxo-6-(4-methylphenyl)pyrido[3,2-f][1,4]oxazepine] yielded a melting point of 203 to 204 °C.
The compound `Cc1ccc(-c2ccnc3c2C(=O)N(Cc2cc(C(F)(F)F)cc(C(F)(F)F)c2)CCO3)cc1` [Reference Example 134, 4-[3,5-Bis(trifluoromethyl)benzyl]2,3,4,5-tetrahydro-5-oxo-6-(4-methylphenyl)pyrido[3,2-f][1,4]oxazepine] displayed a melting point of 212 to 213 °C.
Consider `Cc1ccc(-c2ccnc3c2C(=O)N(Cc2ccccc2)C[C@H](C)CO3)cc1` [Reference Example 135, (S)-5-Benzyl-2,3,4,5-tetrahydro-3-methyl-7-(4-methylphenyl)-6-oxo-6H-pyrido[2,3-b][1,5]oxazocine], for which the melting point lay within 148 to 149 °C.
As to `Cc1ccc(-c2ccnc3c2C(=O)N(Cc2cc(C(F)(F)F)cc(C(F)(F)F)c2)C[C@H](C)CO3)cc1` [Reference Example 136, (S)-5-[3,5-Bis(trifluoromethyl)benzyl]2,3,4,5-tetrahydro-3-methyl-7-(4-methylphenyl)-6-oxo-6H-pyrido[2,3-b][1,5]oxazocine], the melting point lay in the range of 159 to 160 °C.
